# Test results as given in patent EP2818472A1, “Imidazo[4,5-c]pyridine and pyrrolo[3,2-c]pyridine compounds as G-protein-coupled receptor kinase 5 (GRK5) modulators” (Max-Planck-Gesellschaft zur Förderung der Wissenschaften …, priority 2013, dated 2014).
# System: beta-TC6 cells
# Assay: Insulin HTRF assay (relative activity Ar) in beta-TC6 cells
# Format: cell-based, mouse
# Conditions: Mus musculus, Beta-TC6, 4 h, insulin HTRF, supernatant of beta-TC6 cells, incubation with test compound at 37°C for 2, 3, 4h; read-out: Ar (relative activity)
# Procedure, shortened: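 beta-TC6 cells (15k/well, seeded 24 or 48 h) washed, then exposed to compound in induction buffer (0.5% DMSO final) for 2, 3 or 4 h at 37°C.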
row,Compound,Emax [%]
1,"CNc1nc2cnc(Nc3cc(OC)c(OC)c(OC)c3)cc2n1CC1CC1 [Compound 567, 1-(cyclopropylmethyl)-N2-methyl-N6-(3,4,5-trimethoxyphenyl)imidazo[4,5-c]pyridine-2,6-diamine]",50 to 100
2,"CNc1nc2cnc(Nc3cccc(NC(C)=O)c3)cc2n1CC1CC1 [Compound 574, N-[3-[[1-(cyclopropylmethyl)-2-(methylamino)imidazo[4,5-c]pyridin-6-yl]amino]phenyl]acetamide]",50 to 100
3,"CNc1nc2cnc(Nc3ccc(OC)cc3OC)cc2n1CC1CC1 [Compound 569, 1-(cyclopropylmethyl)-N6-(2,4-dimethoxyphenyl)-N2-methyl-imidazo[4,5-c]pyridine-2,6-diamine]",30 to 50
4,"CC(=O)N(C)c1cccc(-c2cc3cnc(Nc4ccc(N5CCN(C)CC5)cc4)cc3n2C)c1 [Compound 164, N-methyl-N-[3-[1-methyl-6-[4-(4-methylpiperazin-1-yl)anilino]pyrrolo[3,2-c]pyridin-2-yl]phenyl]acetamide]",50 to 100
5,"Cn1cc(-c2cc3c(Nc4cccnc4)nccc3n2C)cn1 [Compound 247, 1-methyl-2-(1-methylpyrazol-4-yl)-N-(3-pyridyl)pyrrolo[3,2-c]pyridin-4-amine]",> 100
6,"c1cc2[nH]c(-c3ccsc3)cc2c(Nc2ccc(N3CCOCC3)cc2)n1 [Compound 256, N-(4-morpholinophenyl)-2-(3-thienyl)-1H-pyrrolo[3,2-c]pyridin-4-amine]",50 to 100
7,"CS(=O)(=O)c1ccc(Nc2nccc3[nH]c(-c4ccsc4)cc23)cc1 [Compound 268, N-(4-methylsulfonylphenyl)-2-(3-thienyl)-1H-pyrrolo[3,2-c]pyridin-4-amine]",50 to 100
8,"COc1ccc(-c2nc3cnc(Nc4ccc(C(N)=O)cc4)cc3n2C)cc1OC [Compound 719, 4-[[2-(3,4-dimethoxyphenyl)-1-methyl-imidazo[4,5-c]pyridin-6-yl]amino]benzamide]",30 to 50
9,"Cn1c(NCC2CC2)nc2cnc(-c3ccc(N4CCNCC4)cc3)cc21 [Compound 597, N-(cyclopropylmethyl)-1-methyl-6-(4-piperazin-1-ylphenyl)imidazo[4,5-c]pyridin-2-amine]",50 to 100
10,"COc1cccc(Nc2cc3c(cn2)cc(-c2cnn(C)c2)n3C)c1 [Compound 127, N-(3-methoxyphenyl)-1-methyl-2-(1-methylpyrazol-4-yl)pyrrolo[3,2-c]pyridin-6-amine]",50 to 100
11,"COc1ccc(Nc2nccc3[nH]c(-c4ccncc4)nc23)cc1O [Compound 432, 2-methoxy-5-[[2-(4-pyridyl)-1H-imidazo[4,5-c]pyridin-4-yl]amino]phenol]",> 100
12,"CC(=O)Nc1cccc(Nc2nccc3[nH]c(-c4ccccc4)cc23)c1 [Compound 323, N-[3-[(2-phenyl-1 H-pyrrolo[3,2-c]pyridin-4-yl)amino]phenyl]acetamide]",50 to 100
13,"CN(C)C(=O)c1ccc(-c2cc3cnc(Nc4ccccc4)cc3[nH]2)cc1 [Compound 24, 4-(6-anilino-1 H-pyrrolo[3,2-c]pyridin-2-yl)-N,N-dimethyl-benzamide]",50 to 100
14,"COc1cccc(-c2nc3c(N4CCOCC4)nccc3[nH]2)c1F [Compound 480, 4-[2-(2-fluoro-3-methoxy-phenyl)-1H-imidazo[4,5-c]pyridin-4-yl]morpholine]",30 to 50
15,"COc1ccccc1-c1cc2c(Nc3ccc(NC(C)=O)cc3)nccc2n1C [Compound 301, N-[4-[[2-(2-methoxyphenyl)-1-methyl-pyrrolo[3,2-c]pyridin-4-yl]amino]phenyl]acetamide]",50 to 100
16,"COc1cc(Nc2nccc3c2cc(-c2cccnc2)n3C)cc(OC)c1OC [Compound 237, 1-methyl-2-(3-pyridyl)-N-(3,4,5-trimethoxyphenyl)pyrrolo[3,2-c]pyridin-4-amine]",> 100
17,"COc1ccc(OC)c(CCNc2nc3cnc(-c4ccsc4)cc3n2C)c1 [Compound 592, N-[2-(2,5-dimethoxyphenyl)ethyl]-1-methyl-6-(3-thienyl)imidazo[4,5-c]pyridin-2-amine]",50 to 100
18,"Cn1c(NCC2CCCO2)nc2cnc(-c3cccc(Oc4ccccc4)c3)cc21 (stereo not shown) [Compound 851, 1-methyl-6-(3-phenoxyphenyl)-N-(tetrahydrofuran-2-ylmethyl)imidazo[4,5-c]pyridin-2-amine]",30 to 50
19,"COc1cc(Nc2cc3c(cn2)nc(NCc2ccccc2)n3C)cc(OC)c1OC [Compound 616, N2-benzyl-1-methyl-N6-(3,4,5-trimethoxyphenyl)imidazo[4,5-c]pyridine-2,6-diamine]",50 to 100
20,"CN1CCN(c2ccc(Nc3nccc4[nH]c(-c5cccc(F)c5)cc34)cc2)CC1 [Compound 201, 2-(3-fluorophenyl)-N-[4-(4-methylpiperazin-1-yl)phenyl]-1H-pyrrolo[3,2-c]pyridin-4-amine]",30 to 50
21,"COCCNc1nccc2[nH]c(-c3cccc(C(F)(F)F)c3)nc12 [Compound 355, N-(2-methoxyethyl)-2-[3-(trifluoromethyl)phenyl]-1H-imidazo[4,5-c]pyridin-4-amine]",30 to 50
22,"COCCNc1nc2cnc(Nc3ccc(NC(C)=O)cc3)cc2n1C [Compound 646, N-[4-[[2-(2-methoxyethylamino)-1-methyl-imidazo[4,5-c]pyridin-6-yl]amino]phenyl]acetamide]",50 to 100

row,Compound,Emax [%]
1,"CNc1nc2cnc(-c3cccnc3OC)cc2n1-c1ccccc1 [Compound 788, 6-(2-methoxy-3-pyridyl)-N-methyl-1-phenyl-imidazo[4,5-c]pyridin-2-amine]",30 to 50
2,"CNc1nc2cnc(-c3cccc4ccccc34)cc2n1-c1cccc(F)c1 [Compound 884, 1-(3-fluorophenyl)-N-methyl-6-(1-naphthyl)imidazo[4,5-c]pyridin-2-amine]",30 to 50
3,"Cn1c(-c2ccsc2)cc2c(Nc3ccncn3)nccc21 [Compound 285, 1-methyl-N-pyrimidin-4-yl-2-(3-thienyl)pyrrolo[3,2-c]pyridin-4-amine]",50 to 100
4,"CC(=O)N(C)c1cccc(-c2cc3cnc(N4CCOCC4)cc3n2C)c1 [Compound 171, N-methyl-N-[3-(1-methyl-6-morpholino-pyrrolo[3,2-c]pyridin-2-yl)phenyl]acetamide]",50 to 100
5,"Fc1cccc(Nc2cc3[nH]c(-c4ccccn4)cc3cn2)c1 [Compound 71, N-(3-fluorophenyl)-2-(2-pyridyl)-1H-pyrrolo[3,2-c]pyridin-6-amine]",50 to 100
6,"CNc1nc2cnc(Nc3cccc(OC)c3)cc2n1-c1cc(OC)c(OC)c(OC)c1 [Compound 484, N6-(3-methoxyphenyl)-N2-methyl-1-(3,4,5-trimethoxyphenyl)imidazo[4,5-c]pyridine-2,6-diamine]",30 to 50
7,"CN(C)C(=O)c1ccc(-c2cc3cnc(Nc4ccccc4Cl)cc3[nH]2)cc1 [Compound 37, 4-[6-(2-chloroanilino)-1H-pyrrolo[3,2-c]pyridin-2-yl]-N,N-dimethyl-benzamide]",30 to 50
8,"NC(=O)c1ccc(Nc2nccc3[nH]c(-c4ccsc4)cc23)cc1 [Compound 250, 4-[[2-(3-thienyl)-1H-pyrrolo[3,2-c]pyridin-4-yl]amino]benzamide]",50 to 100
9,"CC(=O)Nc1ccc(Nc2cc3c(cn2)ncn3C)cc1 [Compound 726, N-[4-[(1-methylimidazo[4,5-c]pyridin-6-yl)amino]phenyl]acetamide]",50 to 100
10,"CC(C)[C@H](CO)Nc1nccc2[nH]c(-c3ccncc3)nc12 [Compound 429, (2R)-3-methyl-2-[[2-(4-pyridyl)-1H-imidazo[4,5-c]pyridin-4-yl]amino]butan-1-ol]",0 to 30
11,"c1ccc(Cn2c(-c3cccnc3)cc3cnc(Nc4ccccn4)cc32)cc1 [Compound 98, 1-benzyl-N-(2-pyridyl)-2-(3-pyridyl)pyrrolo[3,2-c]pyridin-6-amine]",30 to 50
12,"CNc1nc2cnc(Nc3ccc(C(N)=O)cc3)cc2n1-c1cccc(F)c1 [Compound 681, 4-[[1-(3-fluorophenyl)-2-(methylamino)imidazo[4,5-c]pyridin-6-yl]amino]benzamide]",50 to 100
13,"c1ccc(-c2cc3cnc(N4CCOCC4)cc3[nH]2)cc1 [Compound 181, 4-(2-phenyl-1H-pyrrolo[3,2-c]pyridin-6-yl)morpholine]",> 100
14,"COc1ccc(-c2nc3c(N(C)c4ccccc4)nccc3[nH]2)cc1OC [Compound 349, 2-(3,4-dimethoxyphenyl)-N-methyl-N-phenyl-1H-imidazo[4,5-c]pyridin-4-amine]",30 to 50
15,"Oc1cccc(Nc2nccc3[nH]c(-c4ccsc4)cc23)c1 [Compound 264, 3-[[2-(3-thienyl)-1H-pyrrolo[3,2-c]pyridin-4-yl]amino]phenol]",30 to 50
16,"COc1ccc(Nc2nccc3c2ncn3C)cc1OC [Compound 447, N-(3,4-dimethoxyphenyl)-1-methyl-imidazo[4,5-c]pyridin-4-amine]",50 to 100
17,"c1cncc(Nc2nccc3[nH]c(-c4ccsc4)cc23)c1 [Compound 255, N-(3-pyridyl)-2-(3-thienyl)-1H-pyrrolo[3,2-c]pyridin-4-amine]",50 to 100
18,"Cc1cccc(Nc2cc3[nH]c(-c4cncn4C)cc3cn2)c1 [Compound 105, 2-(3-methylimidazol-4-yl)-N-(m-tolyl)-1H-pyrrolo[3,2-c]pyridin-6-amine]",50 to 100
19,"COc1cccc(Nc2nccc3[nH]c(-c4cccc(OC)c4F)nc23)c1 [Compound 468, 2-(2-fluoro-3-methoxy-phenyl)-N-(3-methoxyphenyl)-1H-imidazo[4,5-c]pyridin-4-amine]",30 to 50
20,"Oc1ccc(-c2nc3c(Nc4ccccc4)nccc3[nH]2)cc1 [Compound 365, 4-(4-anilino-1H-imidazo[4,5-c]pyridin-2-yl)phenol]",30 to 50
21,"CNc1nc2cnc(Nc3ccc4c(c3)OCCO4)cc2n1-c1cc(OC)c(OC)c(OC)c1 [Compound 487, N6-(2,3-dihydro-1,4-benzodioxin-6-yl)-N2-methyl-1-(3,4,5-trimethoxyphenyl)imidazo[4,5-c]pyridine-2,6-diamine]",50 to 100
